Experimental data: paper PMC7327142 (Biomolecules & Therapeutics, 2020)

Tests used:
[1] = test system: HEK293 cells; conditions: for Cytotoxicity against HEK cells: 25 h
[2] = test system: Vero cells

SMILES	Cytotoxicity against HEK cells ([1]; 20 µM)	other results
O=C(CCCN1C(=O)c2ccccc2C1=O)Nc1ccc2ccccc2c1 [Compound 4, 4-(1,3-dioxo-1,3-dihydro-2H-isoindol-2-yl)-N-2-naphthylbutanamide]	0.603	effect on growth and proliferation of HEK293 cells [1]: decreased the cell numbers
O=C(c1cc(-c2ccc(F)cc2)n[nH]1)N1CCC(Cc2ccc(CO)cc2)C1 (stereo not shown) [Compound 22, {4-[(1-{[3-(4-fluorophenyl)-1H-pyrazol-5-yl]carbonyl}pyrrolidin-3-yl)methyl]phenyl}methanol]	0.596	–
COCc1ccc(C(=O)NCc2nc(-c3cccc(NC(=O)C4CCCN(C)C4)c3)oc2C)s1 (stereo not shown) [Compound 26, N-(3-{4-[({[5-(methoxymethyl)-2-thienyl]carbonyl}amino)methyl]-5-methyl-1,3-oxazol-2-yl}phenyl)-1-methyl-3-piperidinecarboxamide]	0.587	–
O=C(CCCc1ccccc1)Nc1cccc(N2CCC(NCc3cccnc3)CC2)c1 [Compound 33, 4-phenyl-N-(3-{4-[(3-pyridinylmethyl)amino]-1-piperidinyl}phenyl)butanamide]	0.588	–
CC(C)(O)C#Cc1ccc(C(=O)N2CCCC(CCC(=O)NCc3ccccc3F)C2)cc1 (stereo not shown) [Compound 35, N-(2-fluorobenzyl)-3-{1-[4-(3-hydroxy-3-methyl-1-butyn-1-yl)benzoyl]-3-piperidinyl}propanamide]	0.580	–
Cn1cc(C(=O)N2CCN(CCOc3ccc(CN4CCC(Cc5ccccc5)CC4)cc3)CC2)c(=O)c2ccccc21 [Compound 58, 3-{[4-(2-{4-[(4-benzyl-1-piperidinyl)methyl]phenoxy}ethyl)-1-piperazinyl]carbonyl}-1-methyl-4(1H)-quinolinone]	0.602	–
CN(Cc1ccc(OCCN2CCN(C(=O)C3Cc4ccccc4O3)CC2)cc1)Cc1ccc2ncccc2c1 (stereo not shown) [Compound 60, (4-{2-[4-(2,3-dihydro-1-benzofuran-2-ylcarbonyl)-1-piperazinyl]ethoxy}benzyl)methyl(6-quinolinylmethyl)amine]	0.572	–
O=C(Nc1cccc(N2CCC(NCCC(c3ccc(F)cc3)c3ccco3)CC2)c1)c1ccncc1 (stereo not shown) [Compound 61, N-[3-(4-{[3-(4-fluorophenyl)-3-(2-furyl)propyl]amino}-1-piperidinyl)phenyl]isonicotinamide]	0.173	–
COC(=O)c1c(NC(=O)C2CCCO2)c2cc(NCc3cccc(OCCO)c3)cnc2n1CCc1ccccc1 (stereo not shown) [Compound 69, methyl 5-{[3-(2-hydroxyethoxy)benzyl]amino}-1-(2-phenylethyl)-3-[(tetrahydro-2-furanylcarbonyl)amino]-1H-pyrrolo[2,3-b]pyridine-2-carboxylate]	0.529	effect on growth and proliferation of HEK293 cells [1]: decreased the cell numbers; morphological changes in HEK293 cells ([1]; 20 µM): slightly triggered cellular shrinking
O=C(C1CCCN(c2cccc3c2C(=O)N(Cc2ccsc2)C3=O)C1)N1CCC(O)(c2cccc(C(F)(F)F)c2)CC1 (stereo not shown) [Compound 73, 4-[3-({4-hydroxy-4-[3-(trifluoromethyl)phenyl]-1-piperidinyl}carbonyl)-1-piperidinyl]-2-(3-thienylmethyl)-1H-isoindole-1,3(2H)-dione]	0.602	cytotoxicity in Vero cells [2]: no cytotoxicity; growth of Vero cells [2]: reduced the growth
O=C(NCCS(=O)(=O)N1CCc2ccccc2C1)C1CC(=O)N(c2ccc(Cl)cc2)C1 (stereo not shown) [Compound 74, 1-(4-chlorophenyl)-N-(2-((3,4-dihydroisoquinolin-2(1H)-yl)sulfonyl)ethyl)-5-oxopyrrolidine-3-carboxamide]	0.568	cytotoxicity in Vero cells [2]: no cytotoxicity; growth of Vero cells [2]: reduced the growth
Cc1ccc(N2CC(C(=O)NCCS(=O)(=O)N3CCc4ccccc4C3)CC2=O)cc1 (stereo not shown) [Compound 75, N-(2-((3,4-dihydroisoquinolin-2(1H)-yl)sulfonyl)ethyl)-5-oxo-1-(p-tolyl)pyrrolidine-3-carboxamide]	0.604	–
Cc1ccc(N2CC(C(=O)NCCS(=O)(=O)N3CCc4ccccc4C3)CC2=O)cc1C (stereo not shown) [Compound 76, N-(2-((3,4-dihydroisoquinolin-2(1H)-yl)sulfonyl)ethyl)-1-(3,4-dimethylphenyl)-5-oxopyrrolidine-3-carboxamide]	0.520	–
COc1cccc(N2CC(C(=O)NCCS(=O)(=O)N3CCc4ccccc4C3)CC2=O)c1 (stereo not shown) [Compound 77, N-(2-((3,4-dihydroisoquinolin-2(1H)-yl)sulfonyl)ethyl)-1-(3-methoxyphenyl)-5-oxopyrrolidine-3-carboxamide]	0.578	–
O=C(NCCS(=O)(=O)N1CCN(c2ccc(F)cc2)CC1)C1CC(=O)N(c2ccccc2)C1 (stereo not shown) [Compound 78, N-(2-((4-(4-fluorophenyl)piperazin-1-yl)sulfonyl)ethyl)-5-oxo-1-phenylpyrrolidine-3-carboxamide]	0.574	–
